Tests used:
[1] = system: COLO205 colon adenocarcinoma cells (B-Raf V600E mutation); test: COLO205 cell growth inhibition (ATPlite); assay type: cell-based; conditions: Homo sapiens, COLO 205, 72 h, 3 days
Procedure, shortened: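 Cells treated for 3 days at 37 °C, 5% CO2 with an 8-point 1:3 dilution series, top final concentration 10 μM, DMSO control. ATPlite luminescence used as a measure of cell number; IC50 from reading versus concentration.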

B-Raf V600E = B-Raf V600E (Homo sapiens (Human), UniProt P15056, V600E); test: B-Raf V600E kinase biochemical activity assay (AlphaScreen, biotin-MEK1 substrate); conditions: 100 μM ATP
Procedure, shortened: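 IC50 was derived from AlphaScreen signal (anti-phospho-MEK1/2 antibody with streptavidin donor and Protein A acceptor beads, 3 h) across 8 compound concentrations. The kinase step ran 45 min at room temperature: 0.1 ng B-Raf V600E, 100 nM biotin-MEK1, 100 μM final ATP, pH 7.0 HEPES with MgCl2/MnCl2.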

Sequence of B-Raf V600E (P15056 whole entry V600E): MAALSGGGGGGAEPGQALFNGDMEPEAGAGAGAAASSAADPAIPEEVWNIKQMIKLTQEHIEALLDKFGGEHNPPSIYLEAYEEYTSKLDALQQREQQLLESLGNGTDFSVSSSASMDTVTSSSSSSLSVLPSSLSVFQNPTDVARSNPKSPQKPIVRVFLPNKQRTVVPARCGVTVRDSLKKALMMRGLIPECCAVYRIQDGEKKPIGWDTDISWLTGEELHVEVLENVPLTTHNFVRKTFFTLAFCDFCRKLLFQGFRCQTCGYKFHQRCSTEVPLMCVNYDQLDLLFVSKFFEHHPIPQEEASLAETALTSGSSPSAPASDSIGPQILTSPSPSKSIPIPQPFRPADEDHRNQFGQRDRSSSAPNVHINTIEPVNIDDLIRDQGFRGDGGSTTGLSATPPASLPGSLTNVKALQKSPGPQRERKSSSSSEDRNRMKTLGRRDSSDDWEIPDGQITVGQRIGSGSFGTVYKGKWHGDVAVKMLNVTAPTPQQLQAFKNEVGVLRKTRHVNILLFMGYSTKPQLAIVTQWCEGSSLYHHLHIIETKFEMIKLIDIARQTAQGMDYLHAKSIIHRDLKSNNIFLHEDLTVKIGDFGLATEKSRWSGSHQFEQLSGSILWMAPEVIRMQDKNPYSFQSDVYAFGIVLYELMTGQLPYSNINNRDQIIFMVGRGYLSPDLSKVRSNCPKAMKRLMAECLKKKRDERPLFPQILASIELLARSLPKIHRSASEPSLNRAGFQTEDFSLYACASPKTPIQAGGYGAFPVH

| Compound | IC50 [1] | IC50 (B-Raf V600E) |
| --- | --- | --- |
| CC1(C)CCN(S(=O)(=O)Nc2cccc(C(=O)c3c[nH]c4ncc(-c5cnc(C6CC6)nc5)cc34)c2F)C1 [Compound P-0246, N-[3-[5-(2-cyclopropylpyrimidin-5-yl)-1H-pyrrolo[2,3-b]pyridine-3-carbonyl]-2-fluoro-phenyl]-3,3-dimethyl-pyrrolidine-1-sulfonamide] | > 1 µM | < 0.1 µM |
| CC1CCN(S(=O)(=O)Nc2cccc(C(=O)c3c[nH]c4ncc(-c5cnc(C6CC6)nc5)cc34)c2F)C1 (stereo not shown) [Compound P-0247, N-[3-[5-(2-cyclopropylpyrimidin-5-yl)-1H-pyrrolo[2,3-b]pyridine-3-carbonyl]-2-fluoro-phenyl]-3-methyl-pyrrolidine-1-sulfonamide] | < 1 µM | < 0.1 µM |
| CN(C1CC1)S(=O)(=O)Nc1cccc(C(=O)c2c[nH]c3ncc(-c4cnc(C5CC5)nc4)cc23)c1F [Compound P-0249, 3-[3-[[cyclopropyl(methyl)sulfamoyl]amino]-2-fluoro-benzoyl]-5-(2-cyclopropylpyrimidin-5-yl)-1H-pyrrolo[2,3-b]pyridine] | < 1 µM | < 0.1 µM |
| CCCNS(=O)(=O)Nc1cccc(C(=O)c2c[nH]c3ncc(-c4cnc(C5CC5)nc4)cc23)c1F [Compound P-0251, [5-(2-cyclopropylpyrimidin-5-yl)-1H-pyrrolo[2,3-b]pyridin-3-yl]-[2-fluoro-3-(propylsulfamoylamino)phenyl]methanone] | > 1 µM | < 0.1 µM |
| CN(C1CC1)S(=O)(=O)Nc1ccc(F)c(C(=O)c2c[nH]c3ncc(-c4cnc(C5CC5)nc4)cc23)c1F [Compound P-0252, 3-[3-[[cyclopropyl(methyl)sulfamoyl]amino]-2,6-difluoro-benzoyl]-5-(2-cyclopropylpyrimidin-5-yl)-1H-pyrrolo[2,3-b]pyridine] | < 1 µM | < 0.1 µM |
| NC(=O)C1(c2ccc(-c3cnc4[nH]cc(C(=O)c5cccc(NS(=O)(=O)N6CCCC6)c5F)c4c3)cc2)CC1 [Compound P-0253, 1-[4-[3-[2-fluoro-3-(pyrrolidin-1-ylsulfonylamino)benzoyl]-1H-pyrrolo[2,3-b]pyridin-5-yl]phenyl]cyclopropanecarboxamide] | > 1 µM | < 0.1 µM |
| CCOc1ncc(-c2cnc3[nH]cc(C(=O)c4c(F)ccc(NS(=O)(=O)N(C)CC)c4F)c3c2)cn1 [Compound P-0256, 5-(2-ethoxypyrimidin-5-yl)-3-[3-[[ethyl(methyl)sulfamoyl]amino]-2,6-difluoro-benzoyl]-1H-pyrrolo[2,3-b]pyridine] | < 1 µM | < 0.1 µM |
| CCN(C)S(=O)(=O)Nc1ccc(F)c(C(=O)c2c[nH]c3ncc(-c4cnc(N5CCOCC5)nc4)cc23)c1F [Compound P-0258, 4-[5-[3-[3-[[ethyl(methyl)sulfamoyl]amino]-2,6-difluoro-benzoyl]-1H-pyrrolo[2,3-b]pyridin-5-yl]pyrimidin-2-yl]morpholine] | < 1 µM | < 0.1 µM |
| CCN(C)S(=O)(=O)Nc1ccc(F)c(C(=O)c2c[nH]c3ncc(-c4cccc(N5CCOCC5)c4)cc23)c1F [Compound P-0259, 4-[3-[3-[3-[[ethyl(methyl)sulfamoyl]amino]-2,6-difluoro-benzoyl]-1H-pyrrolo[2,3-b]pyridin-5-yl]phenyl]morpholine] | < 1 µM | < 0.1 µM |
| CN1CCN(c2ncc(-c3cnc4[nH]cc(C(=O)c5c(F)ccc(NS(=O)(=O)N6CCCC6)c5F)c4c3)cn2)CC1 [Compound P-0260, N-[2,4-difluoro-3-[5-[2-(4-methylpiperazin-1-yl)pyrimidin-5-yl]-1H-pyrrolo[2,3-b]pyridine-3-carbonyl]phenyl]pyrrolidine-1-sulfonamide] | < 1 µM | < 0.1 µM |
| O=C(c1c(F)ccc(NS(=O)(=O)N2CCCC2)c1F)c1c[nH]c2ncc(-c3cnc(N4CCNCC4)nc3)cc12 [Compound P-0261, N-[2,4-difluoro-3-[5-(2-piperazin-1-ylpyrimidin-5-yl)-1H-pyrrolo[2,3-b]pyridine-3-carbonyl]phenyl]pyrrolidine-1-sulfonamide] | < 1 µM | < 0.1 µM |
| O=C(c1c(F)ccc(NS(=O)(=O)N2CCCC2)c1F)c1c[nH]c2ncc(-c3cnc(N4CCC(O)CC4)nc3)cc12 [Compound P-0262, N-[2,4-difluoro-3-[5-[2-(4-hydroxy-1-piperidyl)pyrimidin-5-yl]-1H-pyrrolo[2,3-b]pyridine-3-carbonyl]phenyl]pyrrolidine-1-sulfonamide] | < 1 µM | < 0.1 µM |
| CCN(C)S(=O)(=O)Nc1ccc(F)c(C(=O)c2c[nH]c3ncc(-c4cnc(N5CCN(C)CC5)nc4)cc23)c1F [Compound P-0263, 3-[3-[[ethyl(methyl)sulfamoyl]amino]-2,6-difluoro-benzoyl]-5-[2-(4-methylpiperazin-1-yl)pyrimidin-5-yl]-1H-pyrrolo[2,3-b]pyridine] | < 1 µM | < 0.1 µM |
| CCN(C)S(=O)(=O)Nc1ccc(F)c(C(=O)c2c[nH]c3ncc(-c4cnc(N5CCNCC5)nc4)cc23)c1F [Compound P-0268, 3-[3-[[ethyl(methyl)sulfamoyl]amino]-2,6-difluoro-benzoyl]-5-(2-piperazin-1-ylpyrimidin-5-yl)-1H-pyrrolo[2,3-b]pyridine] | < 1 µM | < 0.1 µM |
| O=C(c1c(F)ccc(NS(=O)(=O)N2CCCC2)c1F)c1c[nH]c2ncc(-c3cnc(N4CCC4)nc3)cc12 [Compound P-0269, N-[3-[5-[2-(azetidin-1-yl)pyrimidin-5-yl]-1H-pyrrolo[2,3-b]pyridine-3-carbonyl]-2,4-difluoro-phenyl]pyrrolidine-1-sulfonamide] | < 1 µM | < 0.1 µM |
| C[C@@H]1CCN(S(=O)(=O)Nc2cccc(C(=O)c3c[nH]c4ncc(-c5cnc(C6CC6)nc5)cc34)c2F)C1 [Compound P-0271, (3R)—N-[3-[5-(2-cyclopropylpyrimidin-5-yl)-1H-pyrrolo[2,3-b]pyridine-3-carbonyl]-2-fluoro-phenyl]-3-methyl-pyrrolidine-1-sulfonamide] | < 1 µM | < 0.1 µM |
| O=C(c1cccc(NS(=O)(=O)N2CCCC2)c1F)c1c[nH]c2ncc(C3CC3)cc12 [Compound P-0274, N-[3-(5-cyclopropyl-1H-pyrrolo[2,3-b]pyridine-3-carbonyl)-2-fluoro-phenyl]pyrrolidine-1-sulfonamide] | > 1 µM | < 0.1 µM |
| CCN(C)S(=O)(=O)Nc1ccc(F)c(C(=O)c2c[nH]c3ncc(-c4cnc(N5CCC(O)CC5)nc4)cc23)c1F [Compound P-0275, 3-[3-[[ethyl(methyl)sulfamoyl]amino]-2,6-difluoro-benzoyl]-5-[2-(4-hydroxy-1-piperidyl)pyrimidin-5-yl]-1H-pyrrolo[2,3-b]pyridine] | < 1 µM | < 0.1 µM |
| CCN(C)S(=O)(=O)Nc1ccc(F)c(C(=O)c2c[nH]c3ncc(-c4cccc(C5(C#N)CC5)c4)cc23)c1F [Compound P-0276, 5-[3-(1-cyanocyclopropyl)phenyl]-3-[3-[[ethyl(methyl)sulfamoyl]amino]-2,6-difluoro-benzoyl]-1H-pyrrolo[2,3-b]pyridine] | > 1 µM | < 0.1 µM |
| CCN(C)S(=O)(=O)Nc1ccc(F)c(C(=O)c2c[nH]c3ncc(-c4cnc(N5CCC5)nc4)cc23)c1F [Compound P-0277, 5-[2-(azetidin-1-yl)pyrimidin-5-yl]-3-[3-[[ethyl(methyl)sulfamoyl]amino]-2,6-difluoro-benzoyl]-1H-pyrrolo[2,3-b]pyridine] | < 1 µM | > 0.1 µM |
| Nc1ncc(-c2cnc3[nH]cc(C(=O)c4c(F)ccc(NS(=O)(=O)N5CCCC5)c4F)c3c2)cn1 [Compound P-0279, N-[3-[5-(2-aminopyrimidin-5-yl)-1H-pyrrolo[2,3-b]pyridine-3-carbonyl]-2,4-difluoro-phenyl]pyrrolidine-1-sulfonamide] | < 1 µM | < 0.1 µM |
| O=C(c1cccc(NS(=O)(=O)N2CCCC2)c1F)c1c[nH]c2ncc(-c3ccncc3)cc12 [Compound P-0281, N-[2-fluoro-3-[5-(4-pyridyl)-1H-pyrrolo[2,3-b]pyridine-3-carbonyl]phenyl]pyrrolidine-1-sulfonamide] | < 1 µM | < 0.1 µM |
| O=C(c1c(F)ccc(NS(=O)(=O)N2CCCC2)c1F)c1c[nH]c2ncc(-c3ccnc(N4CCOCC4)n3)cc12 [Compound P-0282, N-[2,4-difluoro-3-[5-(2-morpholinopyrimidin-4-yl)-1H-pyrrolo[2,3-b]pyridine-3-carbonyl]phenyl]pyrrolidine-1-sulfonamide] | < 1 µM | < 0.1 µM |
| CCN(C)S(=O)(=O)Nc1ccc(F)c(C(=O)c2c[nH]c3ncc(-c4ccnc(F)c4)cc23)c1F [Compound P-0283, 3-[3-[[ethyl(methyl)sulfamoyl]amino]-2,6-difluoro-benzoyl]-5-(2-fluoro-4-pyridyl)-1H-pyrrolo[2,3-b]pyridine] | < 1 µM | < 0.1 µM |
| CN1CCN(c2cc(-c3cnc4[nH]cc(C(=O)c5c(F)ccc(NS(=O)(=O)N6CCCC6)c5F)c4c3)ccn2)CC1 [Compound P-0285, N-[2,4-difluoro-3-[5-[2-(4-methylpiperazin-1-yl)-4-pyridyl]-1H-pyrrolo[2,3-b]pyridine-3-carbonyl]phenyl]pyrrolidine-1-sulfonamide] | < 1 µM | < 0.1 µM |
| O=C(c1c(F)ccc(NS(=O)(=O)N2CC[C@H](F)C2)c1F)c1c[nH]c2ncc(-c3cnc(C4CC4)nc3)cc12 [Compound P-0289, (3S)—N-[3-[5-(2-cyclopropylpyrimidin-5-yl)-1H-pyrrolo[2,3-b]pyridine-3-carbonyl]-2,4-difluoro-phenyl]-3-fluoro-pyrrolidine-1-sulfonamide] | < 1 µM | < 0.1 µM |
